Where two headings read alike, the source gives them in different places.
How the values were obtained:
SARS-CoV-2 = assay: microbe, parasite or virus in culture; format: cell-based; conditions: Severe acute respiratory syndrome coronavirus 2, Vero; read-out: EC50 antiviral replication effect
IL-6 = assay: LPS induced IL-6 protein level in M1 polarized THP-1 macrophages (ELISA); format: cell-based, Human; conditions: 0.01 μM, 36 h
Method: (§1) Results are expressed as means ±S.D. (n = 3).
(§2) Human monocytic THP-1 cells were maintained in RPMI 1640 medium (Corning, USA) supplemented with 2% L-glutamine,10% fetal bovine serum (FBS), 1% penicillin/ streptomycin and […] ß-mercaptoethanol. THP-1 monocytes are differentiated into macrophages by 24 h incubation with 150 nM phorbol 12-myristate 13-acetate (PMA, Sigma, P8139) followed by 24 h incubation in RPMI medium. Macrophages were polarized in M1 macrophages by incubation with 20 ng/ml of IFN-γ (R&D system, #285-IF) and 100 ng/ml of LPS (Sigma, #8630). […] Cytokine secretion in the culture medium was assayed using an ELISA kit according to the procedure recommended by the supplier (IL-6 (MultiSciences, 70-EK106/2–96), TNFα (MultiSciences,70-EK182HS-96)).

TNF-α = TNF-α protein level in M1 polarized THP-1 macrophages (ELISA); format: cell-based, Human; conditions: 0.1 μM, 36 h
Method: as §1, §2

[1] = In vivo plasma pharmacokinetics in rats; set-up: species or system Sprague-Dawley rats; conditions: Rat; for MRT last: read-out: MRT0-t; for MRT inf: read-out: MRT0-∞
Method: After dosage, blood samples were collected into heparinized tubes at 2, 5, 15, 30, 60, 120, 240, 360, 540, and 720 min for the i.v. group, and at 5, 15, 30, 60, 90, 120, 240, 360, 540, 720 and 1440 min for the i.g. group. Plasma (100 μL) was isolated from the blood sample by centrifuging at 4 °C and 6000 rpm for 3 min and then stored at − 80 °C until analysis. An aliquot of 100 μL of each plasma sample was mixed with 20 μL of internal standard working solution (200 ng/mL of caffeine). Methanol (400 μL) was then added for precipitation. After vortexing for 5 min and centrifuging at 14000 rpm for 10 min, 5 μL of the supernatant was injected for LC-MS/MS analysis.
The PK parameters were analyzed through the noncompartment model using WinNonlin 6.1 software (Pharsight Corporation, Mountain View, USA), including half-life (T1/2), the peak of the plasma concentration (Cmax), the time to peak of the plasma concentration (Tmax), the area under the plasma concentration-time curve during the period of observation (AUC0-t), the area under the plasma concentration-time curve from zero to infinity (AUC0-∞), clearance (CL), apparent volume of distribution (Vd), and the mean residence time.

[2] = mice
in vivo = conditions: male, mouse, lung, po
Method: (§3) The male mice (20–25 g) and Sprague-Dawley rats (180–220 g) were provided by Laboratory Animal Center of Anhui Medical University (Hefei, China), and the beagle dogs were obtained from Nanjing Bosgene Biotech Co., Ltd. All the animals were housed under control conditions (temperature 23 ± 2 °C, humidity 50% ± 5%, 12 h dark/light cycle) with standardized diet and acclimatized for 7 days, prior to the experiments.
(§4) Seventy-two mice or rats were randomly and equally divided into two groups. […] Tissues (liver, lung, and kidney) were promptly harvested at 1, 2, 4, 6, 9, 12, 24, 48, 72, and 144 h. Each tissue sample was homogenized (Tissue sample:saline ratio of 1:5, w/v). Tissue samples were stored at − 80 °C until further analysis. The preparation process for analysis was the same as described above for plasma.
(§5) The LC-MS/MS system consisted of a SHIMADZU LC-30 AD series HPLC system (Shimadzu, Kyoto, Japan) and API4000 triple quadrupole mass spectrometer (Applied Biosystems Sciex, Ont., Canada) with electrospray ionization (ESI) source. Separation was carried out on a C18 column (2.1 × 100 mm, 5 μm, Hanbon, Jiangsu, China) kept at 40 °C. The mobile phase consisted of water (containing 0.1% formic acid, mobile phase A) and methanol (mobile phase B) with rate set at 0.3 mL/min. The optimal gradient elution curve included 0–1.0 min, 10% B; a linear increase to 90% a within 0.5 min; 90% B for 3.5 min; a linear decrease to 10% B within 0.5 min. 10% B for 1.5 min; 7.00 min, stop.
(§6) LC-MS/MS was performed in the positive and multiple reaction monitoring (MRM) mode.

in vitro = conditions: African green monkey
[3] = Lung distribution in rats after oral administration
Method: as §3, §4, §5, §6

[4] = Sprague-Dawley, iv, I.V. 1 mg/kg
[5] = Sprague-Dawley, po, P.O. 10 mg/kg

Question: Which results are given for `CC[C@H]1CN2CCc3cc(OC)c(OC)cc3[C@@H]2C[C@@H]1C[C@H]1NCCc2cc(OC)c(OC)cc21` [Emetine]?
Answer: EC50 (SARS-CoV-2): 7 nM; LPS induced IL-6 expression level (IL-6): significantly reduce; TNF-α expression (TNF-α): moderate effect; AUMC0-t ([1]; I.V. 1 mg/kg): 131 ± 18 hr*hr.*ng/mL; AUMC0-∞ ([1]; I.V. 1 mg/kg): 320 ± 141 hr*hr.*ng/mL; AUMC0-t ([1]; P.O. 10 mg/kg): 1989 ± 15 hr*hr.*ng/mL; AUMC0-∞ ([1]; P.O. 10 mg/kg): 3676 ± 1871 hr*hr.*ng/mL; Cl ([1]; P.O. 10 mg/kg): 45,918 ± 5515 mL/hr./kg; AUC(0-inf) [1, 4]: 39.8 ± 11.3 ng·h/mL; AUC(0-t) [1, 4]: 29.8 ± 6.1 ng·h/mL; C0 [1, 4]: 33.5 ± 2.4 ng/mL; Cmax [1, 4]: 26.9 ± 4.8 ng/mL; Tmax [1, 4]: 0.03 h; clearance [1, 4]: 445 mL/min/kg; half-life [1, 4]: 4.46 ± 1.18 h; MRT last [1, 4]: 4.41 ± 0.31 h; MRT inf [1, 4]: 7.76 ± 1.81 h; Vd ([1]; Sprague-Dawley, iv, I.V. 1 mg/kg, read-out: Vz): 163 L/kg; AUC(0-inf) [1, 5]: 220 ± 28 ng·h/mL; AUC(0-t) [1, 5]: 172 ± 18 ng·h/mL; Cmax [1, 5]: 12.2 ± 3.3 ng/mL; Tmax [1, 5]: 9 h; half-life [1, 5]: 5.16 ± 4.16 h; bioavailability ([1]; Sprague-Dawley, po, P.O. 10 mg/kg vs I.V. 1 mg/kg, read-out: F (oral bioavailability)): 55.3 ± 7.1%; MRT last [1, 5]: 11.6 ± 1.33 h; MRT inf [1, 5]: 16.2 ± 6 h; Lung concentration ([2]; 1 mg/kg I.V. (12 h value of Table s2)): 3.8 µM; Kidney concentration ([2]; I.V. 1 mg/kg, 0.033 h): 8.52 ± 1.25 µM; Liver concentration ([2]; I.V. 1 mg/kg, 0.033 h): 4.11 ± 1.25 µM; Plasma concentration ([2]; I.V. 1 mg/kg, 0.033 h): 150 ± 60 nM; Kidney concentration ([2]; I.V. 1 mg/kg, 0.083 h): 8.04 ± 0.57 µM; Liver concentration ([2]; I.V. 1 mg/kg, 0.083 h): 3.05 ± 0.23 µM; Lung concentration ([2]; I.V. 1 mg/kg, 0.083 h): 16.5 ± 1.59 µM; Plasma concentration ([2]; I.V. 1 mg/kg, 0.083 h): 110 ± 20 nM; Kidney concentration ([2]; I.V. 1 mg/kg, 0.5 h): 9.48 ± 1.10 µM; Liver concentration ([2]; I.V. 1 mg/kg, 0.5 h): 5.01 ± 1.13 µM; Lung concentration ([2]; I.V. 1 mg/kg, 0.5 h): 10.3 ± 1.45 µM; Plasma concentration ([2]; I.V. 1 mg/kg, 0.5 h): 40 ± 20 nM; Kidney concentration ([2]; I.V. 1 mg/kg, 1 h): 9.24 ± 0.44 µM; Liver concentration ([2]; I.V. 1 mg/kg, 1 h): 4.78 ± 0.43 µM; Lung concentration ([2]; I.V. 1 mg/kg, 1 h): 7.73 ± 1.22 µM; Plasma concentration ([2]; I.V. 1 mg/kg, 1 h): 30 ± 6 nM; Kidney concentration ([2]; I.V. 1 mg/kg, 2 h): 9.04 ± 0.15 µM; Liver concentration ([2]; I.V. 1 mg/kg, 2 h): 6.12 ± 1.37 µM; Lung concentration ([2]; I.V. 1 mg/kg, 2 h): 7.12 ± 2.30 µM; Plasma concentration ([2]; I.V. 1 mg/kg, 2 h): 12 ± 3 nM; Kidney concentration ([2]; I.V. 1 mg/kg, 4 h): 6.16 ± 0.77 µM; Liver concentration ([2]; I.V. 1 mg/kg, 4 h): 6.46 ± 0.57 µM; Lung concentration ([2]; I.V. 1 mg/kg, 4 h): 5.85 ± 1.20 µM; Plasma concentration ([2]; I.V. 1 mg/kg, 4 h): 7 ± 1 nM; Liver concentration ([2]; I.V. 1 mg/kg, 6 h): 6.87 ± 0.65 µM; Lung concentration ([2]; I.V. 1 mg/kg, 6 h): 5.42 ± 0.13 µM; Plasma concentration ([2]; I.V. 1 mg/kg, 6 h): 9 ± 4 nM; Kidney concentration ([2]; I.V. 1 mg/kg, 9 h): 5.96 ± 0.76 µM; Liver concentration ([2]; I.V. 1 mg/kg, 9 h): 9.22 ± 0.81 µM; Lung concentration ([2]; I.V. 1 mg/kg, 9 h): 5.63 ± 1.00 µM; Plasma concentration ([2]; I.V. 1 mg/kg, 9 h): 8 ± 4 nM; Kidney concentration ([2]; I.V. 1 mg/kg, 12 h): 4.29 ± 0.79 µM; Liver concentration ([2]; I.V. 1 mg/kg, 12 h): 8.17 ± 1.46 µM; Lung concentration ([2]; I.V. 1 mg/kg, 12 h): 3.77 ± 0.96 µM; Plasma concentration ([2]; I.V. 1 mg/kg, 12 h): 7 ± 5 nM; Kidney concentration ([2]; I.V. 1 mg/kg, 48 h): 0.879 ± 0.278 µM; Liver concentration ([2]; I.V. 1 mg/kg, 48 h): 1.67 ± 0.872 µM; Lung concentration ([2]; I.V. 1 mg/kg, 48 h): 1.67 ± 0.28 µM; Liver concentration ([2]; I.V. 1 mg/kg, 72 h): 0.620 ± 0.024 µM; Lung concentration ([2]; I.V. 1 mg/kg, 72 h): 0.852 ± 0.075 µM; Kidney concentration ([2]; I.V. 1 mg/kg, 144 h): 0.174 ± 0.018 µM; Liver concentration ([2]; I.V. 1 mg/kg, 144 h): 0.129 ± 0.041 µM; Lung concentration ([2]; I.V. 1 mg/kg, 144 h): 0.263 ± 0.034 µM; AUMC0-t ([2]; I.V. 1 mg/kg, Kidney): 193,238 hr*hr.*ng/mL; AUMC0-∞ ([2]; I.V. 1 mg/kg, Kidney): 2,810,677 hr*hr.*ng/mL; AUMC0-t ([2]; I.V. 1 mg/kg, Liver): 275,511 hr*hr.*ng/mL; AUMC0-∞ ([2]; I.V. 1 mg/kg, Liver): 3,897,180 hr*hr.*ng/mL; AUMC0-t ([2]; I.V. 1 mg/kg, Lung): 181,502 hr*hr.*ng/mL; AUMC0-∞ ([2]; I.V. 1 mg/kg, Lung): 1,038,814 hr*hr.*ng/mL; concentration at 12 h (in vivo; 1 mg/kg): 1800 nM; concentration at 72 h (in vivo; 1 mg/kg): 230 nM; concentration at 1 h (in vivo; 1 mg/kg/day): 5000 to 6000 nM; concentration at 72 h (in vivo; 1 mg/kg/day): 2170 nM; CC50 (in vitro): 1960 nM; Rat lung con. ([3]; 1 mg/kg (P.O.) single dose, 1 h): 0.15 ± 0.03 ng/mL; Rat lung con. ([3]; 1 mg/kg (P.O.) single dose, 2 h): 0.26 ± 0.06 ng/mL; Rat lung con. ([3]; 1 mg/kg (P.O.) single dose, 4 h): 0.93 ± 0.32 ng/mL; Rat lung con. ([3]; 1 mg/kg (P.O.) single dose, 6 h): 1.01 ± 0.10 ng/mL; Rat lung con. ([3]; 1 mg/kg (P.O.) single dose, 9 h): 1.47 ± 0.09 ng/mL; Rat lung con. ([3]; 1 mg/kg (P.O.) single dose, 12 h): 1.61 ± 0.48 ng/mL; Rat lung con. ([3]; 1 mg/kg (P.O.) single dose, 24 h): 1.32 ± 0.63 ng/mL; Rat lung con. ([3]; 1 mg/kg (P.O.) single dose, 48 h): 0.76 ± 0.11 ng/mL; Rat lung con. ([3]; 1 mg/kg (P.O.) single dose, 72 h): 0.36 ± 0.08 ng/mL; Rat lung con. ([3]; 1 mg/kg (Q.D.× 3 days, P.O.), 1 h): 5.78 ± 0.61 ng/mL; Rat lung con. ([3]; 1 mg/kg (Q.D.× 3 days, P.O.), 2 h): 6.51 ± 0.67 ng/mL; Rat lung con. ([3]; 1 mg/kg (Q.D.× 3 days, P.O.), 4 h): 6.65 ± 1.21 ng/mL; Rat lung con. ([3]; 1 mg/kg (Q.D.× 3 days, P.O.), 6 h): 6.96 ± 0.87 ng/mL; Rat lung con. ([3]; 1 mg/kg (Q.D.× 3 days, P.O.), 9 h): 8.34 ± 1.09 ng/mL; Rat lung con. ([3]; 1 mg/kg (Q.D.× 3 days, P.O.), 12 h): 8.16 ± 1.58 ng/mL; Rat lung con. ([3]; 1 mg/kg (Q.D.× 3 days, P.O.), 24 h): 7.25 ± 0.79 ng/mL; Rat lung con. ([3]; 1 mg/kg (Q.D.× 3 days, P.O.), 48 h): 5.97 ± 0.81 ng/mL; Rat lung con. ([3]; 1 mg/kg (Q.D.× 3 days, P.O.), 72 h): 4.89 ± 1.35 ng/mL; Lung concentration ([3]; rats, 1 mg/kg single oral dose, 12 h, 1 mg/kg): 1.6 µM; time of maximum lung concentration (Cmax) ([3]; rats, 1 mg/kg/day oral 3 days): 9 h

— article PMC7700809 (Molecular Biomedicine, 2020)
